Experimental findings from patent US4434159A, “Pharmaceutical composition for intrarectal administration, and suppository prepared therefrom” (Teijin Limited, priority 1980, dated 1984) are described below.

In data set [1] the test system is serum calcium level. Nature of the data set: Effect of the amount of the absorption aid on the decrease of serum calcium level (calcitonin suppositories, rats). Particulars: intrarectal, SD male rats, one hour. The format is in vivo. How it is done:
(§1) (a) About 14 g of each of the absorption aids shown in Table 1 was added to 186 g of cacao butter, and they were well mixed by a grinder. Salmon caltintonin or [Asu^1,7 ]-eel calcitonin was added gradually and mixed to form a homogeneous composition. The composition was slightly heated to make it flowable, and about 80 mg of it was cast into a suppository container made for rats, and allowed to solidify by cooling to obtain a rat suppository having a diameter of about 3 mm and a length of about 6 mm. The suppository contained 0.7 MRC units of calcitonin.
(§2) The suppository was administered to the rectum of each of […] male rats (body weight about 200 g) and the concentration of calcium in the serum was measured 1, 2, 3, and 5 hours later to examine the absorbabillity of calcitonin from the rectum. The calcium level in the serum was measured by using a calcium level measuring kit of Yatoron Co., and five rats were used for each blood withdrawal. The results are shown in Table 1 as the decrease (%) of the serum calcium level from that before administration of the calcitonin-containing suppository.
(b) Suppositories containing 0.7 MRC unit of [Aus^1.7 ]-eel calcitonin per 80 mg were prepared in the same way as in (a) above by including each of the absorption aids shown in Table 2 in the amounts indicated. Each of the suppositories was intrarectally administered to SD male rats in the same way as in (a) above, and the decrease (%) of the serum calcium level was measured one hour after the administration.

Data set [2] relates to mucous membrane of the eyes (cornea, iris, conjunctiva). Nature of the data set: Draize eye irritation test of absorption aids in rabbits. Particulars: for Primary irritation scores on the eyes: Conjunctiva / Primary irritation scores on the eyes: Cornea / Primary irritation scores on the eyes: Iris / Primary irritation scores on the eyes: Total: 2.4 w/v % soln. As for the experimental part: Nothing was applied to the other eye. Thus, irritation of the absorption aid to the mucous membrane of the eyes were examined, and scores were calculated in accordance with the Draize's eye irritation evaluating method [Association of Foods, Drugs and Cosmetics" (1957)].

A further data set concerns blood glucose level. The data set is described as follows: Decrease in blood glucose level after administration of insulin suppositories to rabbits. The format is in vivo. Particulars: 0.32 u/kg intramuscularly administered. As for the experimental part:
500 mg of the dispersion was filled into a gelatin capsule for suppositories to form a gelatin capsule suppository. One capsule contained 9.6 units of insulin. In the same manner as above, insulin suppositories were prepared using the other absorption aids shown in Table 4 instead of ascorbic acid. The content (units) of insulin and the amounts of the absorption aids and the base (fractionated coconut oil) were as shown in Table 4. […] Each time, 0.5 ml of the blood was withdrawn from the ear vein. The glucose level of the blood was measured by the glucose oxidase method. Table 4 summarizes the decrease (%) of the blood glucose level from that before the administration.

For data set [3], the system named is serum calcium level. The data set is described as follows: Decrease of the serum calcium level after administration of calcitonin suppositories to rats. Particulars: 0.7 u/kg intramuscularly administered. The format is in vivo. How it is done: as §1, §2
Furthermore, [Aus^1,7 ]-eel calcitonin was intramuscularly injected to rats, and the decrease in serum calcium level was also examined.

Consider `N[C@@H](CCC(=O)O)C(=O)O` [L-Glutamic acid], for which the “Decrease of the serum calcium level (%)” value with serum calcium level [1] (absorption aid 0.8% of suppository with 0.7 MRC unit [Aus^1.7]-eel calcitonin per 80 mg) worked out at 11.5%; in the data set on serum calcium level [1] (absorption aid 2.4% of suppository with 0.7 MRC unit [Aus^1.7]-eel calcitonin per 80 mg) it was 17.2%; in the data set with serum calcium level [1] (absorption aid 15.0% of suppository with 0.7 MRC unit [Aus^1.7]-eel calcitonin per 80 mg), 28.1%. The “Primary irritation scores on the eyes: Conjunctiva” value in data set [2] (1 hours after application) is listed as 3.3; in data set [2] (3 hours after application), 2.0; in data set [2] (6 hours after application), 2.0; in data set [2] (24 hours after application), 0; in data set [2] (48 hours after application), 0; in data set [2] (72 hours after application), 0. Besides, the “Primary irritation scores on the eyes: Conjunctiva” value in data set [2] (96 hours after application) and in data set [2] (168 hours after application) was 0 throughout. Moreover, the “Primary irritation scores on the eyes: Cornea” value in data set [2] (1 hours after application), in data set [2] (3 hours after application), in data set [2] (6 hours after application), in data set [2] (24 hours after application), in data set [2] (48 hours after application) and in data set [2] (72 hours after application) was 0 in each case. The “Primary irritation scores on the eyes: Cornea” value in data set [2] (96 hours after application) and in data set [2] (168 hours after application) was 0 throughout. Besides, the “Primary irritation scores on the eyes: Iris” value in data set [2] (1 hours after application), in data set [2] (3 hours after application), in data set [2] (6 hours after application), in data set [2] (24 hours after application), in data set [2] (48 hours after application) and in data set [2] (72 hours after application) was 0 each time. Moreover, the “Primary irritation scores on the eyes: Iris” value in data set [2] (96 hours after application) and in data set [2] (168 hours after application) was 0 throughout. The “Primary irritation scores on the eyes: Total” value in data set [2] (1 hours after application) was 3.3; in data set [2] (3 hours after application) it was 2.0; in data set [2] (6 hours after application), 2.0; in data set [2] (24 hours after application) it was 0; in data set [2] (48 hours after application), 0; in data set [2] (72 hours after application), 0. The “Primary irritation scores on the eyes: Total” value in data set [2] (96 hours after application) and in data set [2] (168 hours after application) was 0 in each case. Besides, the “irritation to the mucous membrane of the eyes (in words)” value in data set [2] (aqueous solution applied dropwise to rabbit eye, Draize evaluation) is recorded as “almost no irritation”.
Take “Insulin: porcine insulin, intramuscularly administered as comparison”: the “Decrease (%) in blood glucose level from that before administration” value is given as 13.7% in the data set with blood glucose level (30 minutes), 32.6% with blood glucose level (1 hour), 36.2% with blood glucose level (2 hours) and 15.2% in the data set on blood glucose level (3 hours).
“[Asu^1,7 ]-eel calcitonin [[Asu^1.7]eel calcitonin]”: the “Decrease (%) in serum calcium level from that before administration” value with serum calcium level [3] (after 1 hour) amounted to 26.0%; in the data set on serum calcium level [3] (after 2 hours), 30.5%; in the data set on serum calcium level [3] (after 3 hours), 17.5%; in the data set with serum calcium level [3] (after 5 hours) it was 2.1%.
